Data taken from patent US8592174B2, “Peptidase substrates” (bioMérieux, S.A., priority 2009, dated 2013).

Key:
Type in all cases: cell-based
[1] = test system: Cedecea lapagei 05 04 130; assay: pH variation detection on modified chromID Coli medium (Example 6); parameters: Coloration strength: key to the marks not given beside the values; settings: 50 mg/l, 24 h 37° C.
Method: (§1) The media were incubated for 24 hours at 37° C., then the spots formed were examined visually.

[2] = test system: Citrobacter freundii 05 04 165; assay: as above; parameters: Coloration strength: key to the marks not given beside the values; settings: 50 mg/l, 24 h 37° C.
Method: as §1

E. coli 05 04 163 = assay: as above; parameters: Coloration strength: key to the marks not given beside the values; settings: 50 mg/l, 24 h 37° C.
Method: as §1

E. coli 05 06 043 = assay: as above; parameters: Coloration strength: key to the marks not given beside the values; settings: 50 mg/l, 24 h 37° C.
Method: as §1

E. coli 78 12 004 = assay: as above; parameters: Coloration strength: key to the marks not given beside the values; settings: 50 mg/l, 24 h 37° C.
Method: as §1

[3] = test system: Edwarsiella tarda 75 07 053; assay: as above; parameters: Coloration strength: key to the marks not given beside the values; settings: 50 mg/l, 24 h 37° C.
Method: as §1

[4] = test system: Enterobacter amnigenus 05 06 046; assay: as above; parameters: Coloration strength: key to the marks not given beside the values; settings: 50 mg/l, 24 h 37° C.
Method: as §1

[5] = test system: Enterobacter cloacae 05 09 064; assay: as above; parameters: Coloration strength: key to the marks not given beside the values; settings: 50 mg/l, 24 h 37° C.
Method: as §1

[6] = test system: Escherichia hermannii 04 03 161; assay: as above; parameters: Coloration strength: key to the marks not given beside the values; settings: 50 mg/l, 24 h 37° C.
Method: as §1

[7] = test system: Ewingella americana 05 06 045; assay: as above; parameters: Coloration strength: key to the marks not given beside the values; settings: 50 mg/l, 24 h 37° C.
Method: as §1

Hafnia alvei 05 04 201 = assay: as above; parameters: Coloration strength: key to the marks not given beside the values; settings: 50 mg/l, 24 h 37° C.
Method: as §1

[8] = test system: Klebsiella oxytoca 05 04 175; assay: as above; parameters: Coloration strength: key to the marks not given beside the values; settings: 50 mg/l, 24 h 37° C.
Method: as §1

[9] = test system: Morganella morganii ssp morganii 97 08 046; assay: as above; parameters: Coloration strength: key to the marks not given beside the values; settings: 50 mg/l, 24 h 37° C.
Method: as §1

[10] = test system: Pantoea agglomerans 04 05 057; assay: as above; parameters: Coloration strength: key to the marks not given beside the values; settings: 50 mg/l, 24 h 37° C.
Method: as §1

[11] = test system: Pectobacterium carotovorum 84 06 059; assay: as above; parameters: Coloration strength: key to the marks not given beside the values; settings: 50 mg/l, 24 h 37° C.
Method: as §1

[12] = test system: Proteus mirabilis 04 05 048; assay: as above; parameters: Coloration strength: key to the marks not given beside the values; settings: 50 mg/l, 24 h 37° C.
Method: as §1

[13] = test system: Providencia rettgeri 88 05 064; assay: as above; parameters: Coloration strength: key to the marks not given beside the values; settings: 50 mg/l, 24 h 37° C.
Method: as §1

[14] = test system: Providencia stuartii 92 12 101; assay: as above; parameters: Coloration strength: key to the marks not given beside the values; settings: 50 mg/l, 24 h 37° C.
Method: as §1

[15] = test system: Rahnella aquatilis 05 04 103; assay: as above; parameters: Coloration strength: key to the marks not given beside the values; settings: 50 mg/l, 24 h 37° C.
Method: as §1

[16] = test system: Salmonella ser. Typhimurium 81 12 010; assay: as above; parameters: Coloration strength: key to the marks not given beside the values; settings: 50 mg/l, 24 h 37° C.
Method: as §1

[17] = test system: Serratia liquefaciens 05 04 117; assay: as above; parameters: Coloration strength: key to the marks not given beside the values; settings: 50 mg/l, 24 h 37° C.
Method: as §1

[18] = test system: Shigella flexneri 92 11 059; assay: as above; parameters: Coloration strength: key to the marks not given beside the values; settings: 50 mg/l, 24 h 37° C. On Coloration strength: key: +++: good growth/high coloration strength; ++: medium growth/medium coloration strength; +: weak growth/weak coloration strength; −: no growth/no coloration. On Growth: key: +++: good growth/high coloration strength; ++: medium growth/medium coloration strength; +: weak growth/weak coloration strength; −: no growth/no coloration.
Method: as §1

[19] = test system: Shigella sonnei 92 11 060; assay: as above; parameters: Coloration strength: key to the marks not given beside the values; settings: 50 mg/l, 24 h 37° C. On Coloration strength: key: +++: good growth/high coloration strength; ++: medium growth/medium coloration strength; +: weak growth/weak coloration strength; −: no growth/no coloration. On Growth: key: +++: good growth/high coloration strength; ++: medium growth/medium coloration strength; +: weak growth/weak coloration strength; −: no growth/no coloration.
Method: as §1

[20] = test system: Yersinia enterocolitica ssp enterocolitica 92 11 061; assay: as above; parameters: Coloration strength: key to the marks not given beside the values; settings: 50 mg/l, 24 h 37° C.
Method: as §1

[21] = test system: Burkholderia cepacia 7507032; assay: Peptidase detection on Columbia medium (Example 5); settings: 75 mg/l, 48 h 37° C.
Method: (§2) After homogenization, the media were distributed into Petri dishes 55 mm in diameter. A medium acting as a growth control (Columbia) and denoted C was also poured.
(§3) Twenty-two strains of microorganisms were inoculated with a 10 μl calibrated loop according to the three-quadrant streaking method using bacterial suspensions at 0.5 McFarland.

[22] = test system: Pseudomonas aeruginosa 0001001; assay: Peptidase detection on Columbia medium (Example 5); settings: 75 mg/l, 48 h 37° C.
Method: as §2, §3

`Nc1ccc(C=Cc2ccnc3ccccc23)cc1` was tested, and the Color [1] was “Orange”, the Coloration strength [1] was “++” and the Growth ([1]; control C: ++) was “++”. For the same molecule, the Color [2] was “Orange”, the Coloration strength [2] was “++” and the Growth ([2]; control C: ++) was “++”. The Color (E. coli 05 04 163) was “Orange”, the Coloration strength (E. coli 05 04 163) was “++” and the Growth (E. coli 05 04 163; control C: ++) was “++”. The Color (E. coli 05 06 043) was “Orange”, the Coloration strength (E. coli 05 06 043) was “++” and the Growth (E. coli 05 06 043; control C: ++) was “++”. For the same molecule, the Color (E. coli 78 12 004) was “Orange”, the Coloration strength (E. coli 78 12 004) was “++” and the Growth (E. coli 78 12 004; control C: ++) was “++”. For the same molecule, the Color [3] was “Orange”, the Coloration strength [3] was “++” and the Growth ([3]; control C: ++) was “++”. For the same molecule, the Color [4] was “Orange”, the Coloration strength [4] was “++” and the Growth ([4]; control C: ++) was “++”. For the same molecule, the Color [5] was “Orange”, the Coloration strength [5] was “++” and the Growth ([5]; control C: ++) was “++”. For the same molecule, the Color [6] was “Orange”, the Coloration strength [6] was “++” and the Growth ([6]; control C: ++) was “++”. The Color [7] was “Orange”, the Coloration strength [7] was “++” and the Growth ([7]; control C: ++) was “++”. The Color (Hafnia alvei 05 04 201) was “Orange”, the Coloration strength (Hafnia alvei 05 04 201) was “++” and the Growth (Hafnia alvei 05 04 201; control C: ++) was “++”. The Color [8] was “Orange”, the Coloration strength [8] was “++” and the Growth ([8]; control C: ++) was “++”. The Color [9] was “Orange”, the Coloration strength [9] was “++” and the Growth ([9]; control C: ++) was “++”. The Color [10] was “Orange”, the Coloration strength [10] was “++” and the Growth ([10]; control C: ++) was “++”. The Color [11] was “Orange”, the Coloration strength [11] was “++” and the Growth ([11]; control C: ++) was “+”. For the same molecule, the Color [12] was “Orange”, the Coloration strength [12] was “++” and the Growth ([12]; control C: ++) was “++”. For the same molecule, the Color [13] was “Orange”, the Coloration strength [13] was “++” and the Growth ([13]; control C: ++) was “++”. The Color [14] was “Orange”, the Coloration strength [14] was “++” and the Growth ([14]; control C: ++) was “++”. The Color [15] was “Orange”, the Coloration strength [15] was “++” and the Growth ([15]; control C: ++) was “++”. The Color [16] was “Orange”, the Coloration strength [16] was “++” and the Growth ([16]; control C: ++) was “++”. The Color [17] was “Orange”, the Coloration strength [17] was “++” and the Growth ([17]; control C: ++) was “++”. For the same molecule, the Color [18] was “Orange”, the Coloration strength [18] was “++” and the Growth ([18]; control C: ++) was “++”. For the same molecule, the Color [19] was “Orange”, the Coloration strength [19] was “++” and the Growth ([19]; control C: ++) was “++”. For the same molecule, the Color [20] was “Orange”, the Coloration strength [20] was “++” and the Growth ([20]; control C: ++) was “++”.
In the case of `C[C@H](N)C(=O)Nc1ccc(C=Cc2cc[n+](C)c3ccccc23)cc1.Cl.[Cl-]` [L-alanyl-4-(4′-amidostyryl)-N-methylquinolinium (dichloride)], the Color [21] is reported as “−”, the Coloration strength [21] is reported as “−” and the Growth ([21]; control C: ++) is reported as “++”. For the same molecule, the Color [22] was “orange”, the Coloration strength [22] was “++” and the Growth ([22]; control C: ++) was “++”.
